According to patent US20120114636A1, “LOW MOLECULAR WEIGHT CYCLIN E (LMW-E) AS A BIOMARKER FOR PERSONALIZATION OF CANCER THERAPIES” (The Board of Regents of the University of Texas System, priority 2009, published 2012):
Several values for one entry are separate records, joined by “and”; a condition that tells them apart may be missing. Equal values may be shown once.

Legend:
Format in all cases: cell-based, human
[1] = system: cyclin E and CDK2 complexes in MCF-7/Ac1 cells; assay: Immunoprecipitation of cyclin E or CDK2 followed by western blot for p21 and p27
Experimental: (§1) Immunoprecipitation and Immunoblotting. Two hundred fifty μg of cell extracts were used per immunoprecipitation with polyclonal antibody to cyclin E or polyclonal antibody to CDK2, coupled to protein A beads. After being washed, the immunoprecipitates were subjected to electrophoresis in 13% gels, transferred to Immobolin P, blocked, and incubated with the indicated antibodies as already described.
(§2) MCF-7/Ac1 cells were treated with the indicated concentrations of letrozole and AD for 3 days. Cyclin E kinase assays were performed by immunoprecipitating equal amounts of cell lysate (250 μg) with monoclonal antibodies to cyclin E coupled to protein A beads, using histone H1 as substrate. […] The same cell lysates were subjected to western blot analysis (50 μg of protein) with the indicated antibodies. […] The same cell lysates were first immunoprecipitated with cyclin E followed by western blot for p21 and p27. […] The same cell lysates were first immunoprecipitated with CDK2 followed by western blot for p21 and p27. The levels of proteins were measured by densitometric scanning of the corresponding bands and normalized using actin values. The values indicated at the bottom were compared to the values obtained with untreated cells.

[2] = system: cyclin E-associated kinase activity in MCF-7/Ac1 cells; assay: Cyclin E-associated kinase assay (histone H1); conditions: with 25 nM AD, 3 days
Experimental: as §1, §2

[3] = system: CDK2 kinase activity in MCF-7/Ac1 cells; assay: CDK2 kinase assay in LacZ or cyclin E-T1 adenovirus-infected cells; conditions: 1 μM letrozole
Experimental: MCF-7/Ac1 cells were cultured in IMEM with 10% charcoal-stripped serum medium (CSSM) without phenol red and with 600 μg/ml of G418 for 4 days before plating. Plates were then infected with LacZ (4000 m.o.i) or increasing concentration of cyclin E-T1 adenoviruses 24 hours before drug treatment. Cells were then left untreated (E2W, estrogen withdrawal) or treated with 25 nM AD (AD) or treated with 25 nM AD and 1 μM letrozole (AD+Let) and collected 3 days later for CDK2 kinase activity. CDK2 kinase assays were performed by immunoprecipitating equal amounts of cell lysate (250 μg) with monoclonal antibodies to CDK2 (D12, sc-6248) coupled to protein G beads, using histone H1 as substrate. The bar graph represents the densitometric values of the phosphorylated histone H1 substrate.

MCF-7/Ac1 cells [4] = assay: Cell growth by cell counting, AD-stimulated cells; conditions: Homo sapiens, MCF7, 72 h, with 25 nM AD, 3 days, read-out: inhibition of AD-induced growth
Experimental: Cell growth. The effects of the aromatase inhibitors on MCF7/Ac1 cells growth were examined by counting the cells at the indicated time. The cells were detached from their flask using trypsin and counted using a Coulter counter machine.
To examine the effects of the three different aromatase inhibitors on the proliferation of MCF-7/Ac1 cells, cells were cultured in estrogen deprived, charcoal stripped serum media (CSSM). The response of the cells to 25 nM of androstenedione (AD) alone or AD plus one of the 3 aromatase inhibitors letrozole (FIG. 22A), anastrozole (FIG. 22B), and exemestane (FIG. 22C) was measured after 3 days of treatment. Cells maintained in CSSM were used as controls.
FIGS. 22A-22C show the effect of aromatase inhibitor treatment on proliferative response and cell cycle distribution of MCF-7/Ac1 cells. Cells were cultured in IMEM with 10% charcoal-stripped serum medium (CSSM) without phenol red and with 600 μg/ml of G418 for 4 days before plating. Cells (100,000) were seeded in 100 mm dishes and, 24 hrs later, were exposed for 3 days to the specific treatment. […] CSSM, untreated cells cultured in charcoal-stripped serum medium without phenol red and with 600 μg/ml of G418.

MCF-7/Ac1 cells [5] = assay: Sequential AD/letrozole then roscovitine treatment: cell number and CDK2 western blot; conditions: LMW cyclin E overexpressing cells
Experimental: Medium alone or medium plus DMSO were used as controls. A schematic of the treatment strategy is depicted in FIG. 25A. At the conclusion of the treatment, cells were enumerated and subjected to western blot analysis with CDK2 (total) and phospho-CDK2 antibodies.
Cells were then infected with the indicated adenoviruses (at 4000 m.o.i.) 24 hours before drug treatment.

[6] = system: CDK2 protein in MCF-7/Ac1 cells; assay: Western blot of CDK2 protein levels in adenovirus-infected cells; conditions: letrozole
Experimental: Western blot analysis. Cell lysates were prepared and subjected to western blot analysis as described previously (Akli et al., 2004). Briefly, 50 μg of protein were subjected to electrophoresis on SDS-PAGE and transferred to Immobilon P overnight at 4° C. at […] constant voltage. The blots were blocked overnight at 4° C. in BLOTTO [5% nonfat dried milk in 20 mM Tris, 137 mM NaCl, and 0.05% Tween (pH 7.6)]. After being washed, the blots were incubated in primary antibodies for 3 h. Primary antibodies used were cyclin E (HE-12; Santa Cruz Biotechnology), p21 (0P64; Oncogene Research Products, Boston, Mass.), p27 (K25020; BD Biosciences-Transduction Laboratories, Lexington, Ky.), cyclin-dependent kinase 2 (CDK2; Transduction Laboratories), and actin (Chemicon International, Inc., Temecula, Calif.). Blots were then incubated with goat anti-mouse or anti-rabbit immunoglobulin-horseradish peroxidase conjugate at a dilution of 1:5000 in BLOTTO for 1 h and finally washed and developed by using the Renaissance chemiluminescence system as directed by the manufacturer (Perkin-Elmer Life Sciences, Inc., Boston, Mass.). Western blots were quantitated by densitometric analysis using IPLab Gel software (Scientific Image Processing, Vienna, Va.). Densitometric values of actin were used to standardize for equal protein loading. These values were introduced into the software Graph-Pad Prism version 4.0 (GraphPad Software, Inc., San Diego, Calif.) for statistical analysis.
MCF-7/Ac1 cells were cultured in IMEM with 10% charcoal-stripped serum medium (CSSM) without phenol red and with 600 μg/ml of G418 for 4 days before plating. […] Cells were then infected with the indicated adenoviruses (at 4000 m.o.i.) 24 hours before drug treatment.

N#Cc1ccc(C(c2ccc(C#N)cc2)n2cncn2)cc1 [letrozole]
p21 binding to both cyclin E and CDK2 ([1]; letrozole with 25 nM AD): slightly decreased | increase in p27 binding to both cyclin E and CDK2 over levels in AD treated cells ([1]; letrozole, dose-dependent, with 25 nM AD): up to 2 fold | concentration that blocked the AD-induced increase in cyclin E-associated kinase activity [2]: ≤ 0.125 µM | block of CDK2 kinase activity ([3]; LMW cyclin E (T1) expressing cells, any m.o.i): cannot block | block of AD-induced increase in CDK2 kinase activity ([3]; LacZ expressing cells): completely blocks | inhibition at 0.1 µM (MCF-7/Ac1 cells [4]; 0.1 μM): 37.2% | inhibition at 1 µM (MCF-7/Ac1 cells [4]; 1 μM): 63.5% | increase in AD-induced proliferation not prevented by letrozole (MCF-7/Ac1 cells [5]; AD plus 1 μM letrozole): 2.5 fold and 2.8 fold | phosphorylated/unphosphorylated CDK2 ratio (MCF-7/Ac1 cells [5]; AD plus letrozole): 134-234% | CDK2 protein levels ([6]; LMW cyclin E (T1, T2) overexpressing cells): did not drop following letrozole treatment | total CDK2 protein levels, percent of the level in untreated, uninfected cells ([6]; cyclin EL overexpressing cells): 50% | total CDK2 protein levels, percent of the level in uninfected cells ([6]; uninfected and LacZ infected cells): 10%
